Common to all, as to format: in vivo
In assay [1] the test system is yellow fever mosquito (Aedes aegypti). The assay is described as follows: whole plant or invertebrate. The settings on record: 48 h, larval mortality, 2 days, read-out: mortality in comparison with untreated controls. The protocol: (§1) If not otherwise specified, the test solutions are prepared as follows: The active compound is dissolved at the desired concentration in a mixture of 1:1 (vol:vol) distilled water:acteone. The test solution is prepared at the day of use. Test solutions are prepared in general at concentrations of 2500 ppm, 1415 ppm, 828 ppm, 800 ppm and 300 ppm (wt/vol).
For evaluating control of yellow fever mosquito (Aedes aegypti) the test unit consisted of 96-well-microtiter plates containing 200 μl of tap water per well and 5-15 freshly hatched A. aegypti 5 larvae. The active compounds were formulated using a solution containing 75% (v/v) water and 25% (v/v) DMSO. Different concentrations of formulated compounds or mixtures were sprayed onto the insect diet at 2.5 μl, using a custom-built micro atomizer, at two replications. After application, microtiter plates were incubated at 28±1° C., 80±5% R^H for 2 days. Larval 10 mortality was then visually assessed.

Assay [2] deals with boll weevil (Anthonomus grandis). The assay is described as follows: Boll weevil (Anthonomus grandis) microtiter insect-diet test. The conditions noted are these: 120 h, read-out: mortality in comparison with untreated controls. The procedure:
as §1
For evaluating control of boll weevil (Anthonomus grandis) the test unit consisted of 96-well-microtiter plates containing an insect diet and 5-10 A. grandis eggs. The compounds were formulated using a solution containing 75% v/v water and 25% v/v DMSO. Different concentrations of formulated compounds were sprayed onto the insect diet at 5 μl, using a custom built micro atomizer, at two replications. After application, microtiter plates were incubated at about 25±1° C. and about 75±5% relative humidity for 5 days. Egg and larval mortality was then visually assessed.

Assay [3] deals with green peach aphid (Myzus persicae). The assay is described as follows: Green peach aphid (Myzus persicae) systemic test, artificial diet under membrane. The conditions noted are these: 72 h, read-out: mortality in comparison with untreated controls. The protocol:
as §1
For evaluating control of green peach aphid (Myzus persicae) through systemic means the test unit consisted of 96-well-microtiter plates containing liquid artificial diet under an artificial membrane. The compounds were formulated using a solution containing 75% v/v water and 25% v/v DMSO. Different concentrations of formulated compounds were pipetted into the aphid diet, using a custom built pipetter, at two replications. After application, 5-8 adult aphids were placed on the artificial membrane inside the microtiter plate wells. The aphids were then allowed to suck on the treated aphid diet and incubated at about 23±1° C. and about 50±5% relative humidity for 3 days. Aphid mortality and fecundity was then visually assessed.

For assay [4], the system named is Greenhouse Whitefly (Trialeurodes vaporariorum). The assay is described as follows: Greenhouse whitefly (Trialeurodes vaporariorum) egg plant leaf disk test. The conditions noted are these: foliar, 144 h, read-out: mortality in comparison with untreated controls. The procedure: as §1
For evaluating control of Greenhouse Whitefly (Trialeurodes vaporariorum) the test unit consisted of 96-well-microtiter plates containing a leaf disk of egg plant leaf disk with white fly eggs. The compounds or mixtures were formulated using a solution containing 75% water and 25% DMSO. Different concentrations of formulated were sprayed onto the insect diet at 2.5 μl, using a custom-built micro atomizer, at two replications. After application, microtiter plates were incubated at 23±1° C., 65±5% R^H for 6 days. Mortality of hatched crawlers was then visually assessed.

The subject of assay [5] is vetch aphid (Megoura viciae). The assay is described as follows: Vetch aphid (Megoura viciae) broad bean leaf disk test, contact or systemic. The settings on record: foliar, 120 h, read-out: mortality in comparison with untreated controls. The procedure: as §1
For evaluating control of vetch aphid (Megoura viciae) through contact or systemic means the test unit consisted of 24-well-microtiter plates containing broad bean leaf disks.
The compounds were formulated using a solution containing 75% v/v water and 25% v/v DMSO. Different concentrations of formulated compounds were sprayed onto the leaf disks at 2.5 μl, using a custom built micro atomizer, at two replications. After application, the leaf disks were air-dried and 5-8 adult aphids placed on the leaf disks inside the microtiter plate wells. The aphids were then allowed to suck on the treated leaf disks and incubated at about 23±1° C. and about 50±5% relative humidity for 5 days. Aphid mortality and fecundity was then visually assessed.

Assay [6] concerns tobacco budworm (Heliothis virescens). The assay is described as follows: Tobacco budworm (Heliothis virescens) microtiter insect-diet test. The conditions noted are these: 120 h, read-out: mortality in comparison with untreated controls. The protocol:
as §1
For evaluating control of tobacco budworm (Heliothis virescens) the test unit consisted of 96-well-microtiter plates containing an insect diet and 15-25 H. virescens eggs. The compounds were formulated using a solution containing 75% v/v water and 25% v/v DMSO. Different concentrations of formulated compounds were sprayed onto the insect diet at 10 μl, using a custom built micro atomizer, at two replications. After application, microtiter plates were incubated at about 28±1° C. and about 80±5% relative humidity for 5 days. Egg and larval mortality was then visually assessed.

Some results are limits rather than exact numbers.

For orientation: mortality means the percentage killed. As to `CCS(=O)(=O)c1c(-c2cn3c(=O)n(C4CC4)c(C(F)(F)F)cc3n2)nc2ccccn12` [I.2, 6-cyclopropyl-2-[3-(ethanesulfonyl)imidazo[1,2-a]pyridin-2-yl]-7-(trifluoromethyl)imidazo[1,2-c]pyrimidin-5-one], the mortality at 2500 ppm in assay [1] is not below 75%; in assay [3], more than 75%; in assay [4], not below 75%. In addition, in assay [2], the mortality at 828 ppm is more than 75%.
With `CCS(=O)(=O)c1c(-c2cn3c(=O)n(C)c(C(F)(F)F)cc3n2)nc2n1CCCC2` [I.13, 2-(3-ethylsulfonyl-5,6,7,8-tetrahydroimidazo[1,2-a]pyridin-2-yl)-6-methyl-7-(trifluoromethyl)imidazo[1,2-c]pyrimidin-5-one], the mortality at 800 ppm in assay [2] was more than 75%.
Take `CCS(=O)(=O)c1c(-c2cn3c(=O)n(C)c(C(F)(F)F)cc3n2)nc2ccc(C(F)(F)F)cn12` [I.1, 2-[3-ethylsulfonyl-6-(trifluoromethyl)imidazo[1,2-a]pyridin-2-yl]-6-methyl-7-(trifluoromethyl)imidazo[1,2-c]pyrimidin-5-one]: the mortality at 2500 ppm in assay [1] was not below 75%; in assay [5], more than 75%; in assay [3] it was more than 75%; in assay [6], more than 75%. The mortality at 800 ppm in assay [2] was more than 75%.
Consider `CCS(=O)(=O)c1c(-c2cn3c(=O)n(C4CC4)c(C(F)(F)F)cc3n2)nn2ccccc12` [I.11, 6-cyclopropyl-2-(3-ethylsulfonylpyrazolo[1,5-a]pyridin-2-yl)-7-(trifluoromethyl)imidazo[1,2-c]pyrimidin-5-one], for which the mortality at 800 ppm in assay [1] (800 ppm) is not below 75%; in assay [2], more than 75%; in assay [3], more than 75%; in assay [6] it was more than 75%.

The values above are taken from patent US20220411428A1, “Pyrimidone Derivatives Containing Two Fused Bicyclic Rings” (priority 2019, published 2022).
